Data on eight molecules can be found in paper PMC11982232, “Factors affecting irreversible inhibition of EGFR and influence of chirality on covalent binding” (Communications Chemistry, 2025).

What is called Kd is the constant that tells how readily two partners part at equilibrium. A high value points to weaker binding. As a reminder, the GI50 is the concentration at which growth is held to half of that of the control. Read a high GI50 as lower sensitivity of the cells.

The subject of data set [1] is GSH. The data set can be described thus: GSH reactivity (glutathione half-life). The data set is classed as physicochemical. The conditions noted are these: 4.6 mM glutathione (GSH) in phosphate buffer; 4.6 mM GSH, 50 µM compound, pH 7.4 phosphate buffer, 37 °C; read-out: GSH t1/2 (converted). On the procedure:
Compounds were suspended to 10 mM in 100% DMSO and were added to 4.6 mM GSH to achieve the final compound concentration of 50 µM in pH 7.4 phosphate buffer before incubating at 37 °C. Compound reaction with GSH was monitored by LC-MS on a Waters Acquity UPLC system with PDA and ELSD operating in positive and negative ion electrospray mode, employing an Acquity UPLC BEH C18, […], 2.1 × 50 mm column with 0.1% formic acid and water-acetonitrile (5–95%) for gradient elution over 4 minutes.

Data set [2] concerns the target T1, EGFR WT (Homo sapiens, UniProt P00533).
T1 construct: made in house; host or cells: Sf9 insect cells (MultiBac baculovirus)
The data set can be described thus: TR-FRET probe displacement assay, EGFR WT. The data set is classed as binding. The conditions noted are these: for WT pIC50 / IC50: 30 min incubation, mean of at least 3 replicates; for IC50: read-out: WT pIC50 (converted). The procedure:
(§1) The binding mode of gefitinib, typical of an anilinoquinazoline-based kinase inhibitor, is well characterised, with the morpholine side-chain extending into the solvent exposed region where a variety of substituents are tolerated. […] Accordingly, probe compound 6 was prepared, in which the morpholine was replaced by a piperazine and a BODIPY fluorophore was attached via a 4-aminobutanoate spacer (Fig. 3a). A related sapitinib-derived tracer has subsequently been described. Compound 6 was employed in a time-resolved Förster-resonance energy transfer (TR-FRET) assay with EGFR bound to a terbium-containing antibody (Fig. 3b). In line with our previous work exploring the activity of anilinoquinazoline-based acrylamide TCIs[14], the incubation time for the assay was set at 30 mins.
(§2) Compounds (dissolved to 10 mM in DMSO) were dispensed into black low-volume 384 well assay plates (Corning) over a final concentration range of 100000, 30,000, 10,000, 3000, 1000, 300, 100, 30, 10, and 3 nM using an Echo 550 (Labcyte). Positive control compound and DMSO as a negative control were dispensed into the first and last well, respectively. Each well was backfilled with DMSO to a final volume of 200 nl, resulting in final assay DMSO concentrations of 1%. […] Plates were read using a PheraStar FS (BMG Labtech) at Ex337nm […]. The data were analysed using GraphPad Prism/Dotmatics Studies Software. Assays were conducted in technical replicate and repeated as a biological duplicate.
A general note: TR-FRET usually uses a lanthanide donor and a delayed reading to cut background.

The target in data set [3] is T2, EGFR DM (L858R/T790M) (Homo sapiens, UniProt P00533, L858R/T790M).
T2 construct: His tag
Description: TR-FRET probe displacement assay, EGFR DM. Type of data set: binding. To be noted: for DM pIC50 / IC50: 30 min incubation, mean of at least 3 replicates; for IC50: read-out: DM pIC50 (converted). The procedure: as §1, §2

For data set [4], the system named is pEGFR in WT EGFR overexpressing A431 cells. Description: Cellular pEGFR inhibition by HTRF in A431 cells. The data set is classed as cell-based. To be noted: Homo sapiens, A-431, n = 1, read-out: pIC50 (A431) cellular pEGFR inhibition (converted). The procedure: (§3) Cells were plated at 20,000 cells per well in 96 well plates and placed at 37°C 5% CO2. Once adhered (after 24 h) cells were treated with compounds dissolved in DMSO at a final concentration of 0.1% DMSO in media. Compounds were diluted in media then added to cells for 2.5 hours in duplicate. 100 ng/ml EGF (ThermoFisher, PHG0311) was is added to all compound treated cells as well as a control for 30 mins. Compound and media were removed from the cells, then 50ul of HTRF lysis buffer was added (lysis buffer was diluted from 4X stock to 1X in DI water, with 1% blocking agent also added). Cells were lysed on a plate shaker (2000 rpm) for 30 minutes at room temperature. pEGFR expression was monitored using the Cisbio Phospho-EGFR (Tyr1068) cellular kit (64EG1PEH). Total EGFR expression was monitored using the Cisbio Total EGFR cellular kit (64NG1PEH) as per manufacturer’s instructions. Fluorescence emission was read at two different wavelengths (665 nm and 620 nm) on a PheraStar. Results were calculated as the ratio of pEGFR/ total EGFR and then the percentage of 0 µM control. Data is n = 1 from 2 replicates.

Data set [5] has as its system pEGFR in DM expressing H1975 cells. Description: Cellular pEGFR inhibition by HTRF in H1975 cells. The conditions noted are these: Homo sapiens, NCI-H1975, n = 1, read-out: pIC50 (H1975) cellular pEGFR inhibition (converted). Type of data set: cell-based. The procedure: as §3
Data set [6] has as its system A431 cells. The data set can be described thus: Growth inhibition in A431 cells (SRB, 72 h). The data set is classed as cell-based. The conditions noted are these: Homo sapiens, A-431, A431 cell viability, n = 1. On the procedure: A431 cells purchased from ECACC, Cat. 85090402, were plated on day 0 in a 96-well plate at a density known to allow for exponential growth over 72 h in DMEM (Sigma-Aldrich, Cat No. D5796) supplemented with 10% FBS (Gibco, Cat No. 10270-106). On day 1, the compounds were diluted to the required concentration in DMEM + 10% FBS media, ensuring that the final DMSO concentration was 0.1% once added to cells. The cells were then incubated for 72 h at 37 °C with 5% CO2. Cells were then fixed by adding 50% (wt/vol) TCA to each well of the plate and left at 4 °C for 1 h. The plates were then washed thoroughly with water, 100 μL of 0.4% SRB solution was added to the wells, and left at room temperature for 30 min. The plates were rinsed with 1% AcOH and then left to air-dry in a drying cabinet for 1 h. Once dry, 100 μL of 10 mM tris pH 10.5 was added to each well and the plates were placed on a plate shaker for 10 min. The absorbance was read at 570 nm using a FluoStar Omega plate reader. Data is n = 1 from 3 replicates, […]

For data set [7], the target named is T3, WT EGFR (Homo sapiens, UniProt P00533).
T3 construct: AssayQuant Technologies Inc. (contract measurement)
The data set can be described thus: Intact protein mass spectrometry. The data set is classed as binding. To be noted: 15 µM compound, 4 µM EGFR, 4 hr, ambient temperature. On the procedure:
Compounds were suspended to 10 mM in 100% DMSO and were added to 4 µM EGFR to achieve the final compound concentration of 15 µM in 1% DMSO, in 25 mM TRIS pH8, 150 mM NaCL, 5% glycerol before incubating at ambient temperature for the 4 hr time prior to analysis. […] 1 µL of purified protein (~1 mg/mL) was injected onto a MS Pac DS-10 Desalter cartridge ((Thermo Fisher Scientific), PN: 089170, 2.1 × 10 mm) for desalting and reversed phase separation at 70 °C. The mobile phase was 0.1% (v/v) formic acid in LC-MS grade water (A) and LC-MS grade acetonitrile (B) with separation performed over 7.5 min. […] Proteins were detected in positive ion mode using electrospray ionisation with nebuliser pressure of 45 psig, drying gas flow of 5 L/min, and source gas temperature of 325 °C. Sheath gas temperature of 400 °C and gas flow of 11 L/min, capillary voltage of 3500 V and nozzle voltage of 2000V were also used. Mass spectra were acquired using MassHunter Acquisition software (version B.08.00) over a mass range of 100–3000 m/z, at a rate of 1 spectra/s and 1000 ms/spectrum in standard mass range (3200 m/z) at 2 GHz. The instrument had been calibrated over the selected mass range prior to analysis.

T2 sequence (P00533 25-1210 T790M/L858R): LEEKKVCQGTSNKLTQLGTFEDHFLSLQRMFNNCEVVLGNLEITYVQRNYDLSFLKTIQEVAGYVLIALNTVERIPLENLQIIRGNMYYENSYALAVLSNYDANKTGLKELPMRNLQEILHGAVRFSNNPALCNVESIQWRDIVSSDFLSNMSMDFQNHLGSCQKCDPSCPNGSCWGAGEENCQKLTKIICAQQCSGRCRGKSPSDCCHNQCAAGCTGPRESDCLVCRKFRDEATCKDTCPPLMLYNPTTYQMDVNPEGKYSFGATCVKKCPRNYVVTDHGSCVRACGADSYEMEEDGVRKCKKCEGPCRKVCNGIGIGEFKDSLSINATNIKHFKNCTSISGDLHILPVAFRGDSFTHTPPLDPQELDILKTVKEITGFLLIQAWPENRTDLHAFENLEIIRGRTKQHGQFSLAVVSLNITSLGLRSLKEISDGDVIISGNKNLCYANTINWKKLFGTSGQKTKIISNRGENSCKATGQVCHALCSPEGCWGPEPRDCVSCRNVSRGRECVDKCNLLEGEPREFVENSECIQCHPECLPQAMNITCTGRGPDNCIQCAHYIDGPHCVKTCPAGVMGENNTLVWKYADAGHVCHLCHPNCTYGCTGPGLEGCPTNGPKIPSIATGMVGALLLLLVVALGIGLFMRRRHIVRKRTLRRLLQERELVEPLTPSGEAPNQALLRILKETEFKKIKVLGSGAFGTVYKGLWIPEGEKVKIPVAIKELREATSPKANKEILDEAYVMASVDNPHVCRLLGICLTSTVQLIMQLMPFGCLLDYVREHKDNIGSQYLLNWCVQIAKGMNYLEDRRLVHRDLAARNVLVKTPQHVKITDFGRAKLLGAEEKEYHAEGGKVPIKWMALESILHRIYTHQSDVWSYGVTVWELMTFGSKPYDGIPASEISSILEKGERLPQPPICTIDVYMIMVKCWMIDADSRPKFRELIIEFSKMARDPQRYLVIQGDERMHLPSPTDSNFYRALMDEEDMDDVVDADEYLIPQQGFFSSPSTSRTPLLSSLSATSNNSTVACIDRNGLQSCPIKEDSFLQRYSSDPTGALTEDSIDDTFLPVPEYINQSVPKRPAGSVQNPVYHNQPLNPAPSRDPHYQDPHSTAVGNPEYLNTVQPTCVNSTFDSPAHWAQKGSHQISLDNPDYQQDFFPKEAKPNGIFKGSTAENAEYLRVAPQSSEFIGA
T1 sequence (P00533 25-1210): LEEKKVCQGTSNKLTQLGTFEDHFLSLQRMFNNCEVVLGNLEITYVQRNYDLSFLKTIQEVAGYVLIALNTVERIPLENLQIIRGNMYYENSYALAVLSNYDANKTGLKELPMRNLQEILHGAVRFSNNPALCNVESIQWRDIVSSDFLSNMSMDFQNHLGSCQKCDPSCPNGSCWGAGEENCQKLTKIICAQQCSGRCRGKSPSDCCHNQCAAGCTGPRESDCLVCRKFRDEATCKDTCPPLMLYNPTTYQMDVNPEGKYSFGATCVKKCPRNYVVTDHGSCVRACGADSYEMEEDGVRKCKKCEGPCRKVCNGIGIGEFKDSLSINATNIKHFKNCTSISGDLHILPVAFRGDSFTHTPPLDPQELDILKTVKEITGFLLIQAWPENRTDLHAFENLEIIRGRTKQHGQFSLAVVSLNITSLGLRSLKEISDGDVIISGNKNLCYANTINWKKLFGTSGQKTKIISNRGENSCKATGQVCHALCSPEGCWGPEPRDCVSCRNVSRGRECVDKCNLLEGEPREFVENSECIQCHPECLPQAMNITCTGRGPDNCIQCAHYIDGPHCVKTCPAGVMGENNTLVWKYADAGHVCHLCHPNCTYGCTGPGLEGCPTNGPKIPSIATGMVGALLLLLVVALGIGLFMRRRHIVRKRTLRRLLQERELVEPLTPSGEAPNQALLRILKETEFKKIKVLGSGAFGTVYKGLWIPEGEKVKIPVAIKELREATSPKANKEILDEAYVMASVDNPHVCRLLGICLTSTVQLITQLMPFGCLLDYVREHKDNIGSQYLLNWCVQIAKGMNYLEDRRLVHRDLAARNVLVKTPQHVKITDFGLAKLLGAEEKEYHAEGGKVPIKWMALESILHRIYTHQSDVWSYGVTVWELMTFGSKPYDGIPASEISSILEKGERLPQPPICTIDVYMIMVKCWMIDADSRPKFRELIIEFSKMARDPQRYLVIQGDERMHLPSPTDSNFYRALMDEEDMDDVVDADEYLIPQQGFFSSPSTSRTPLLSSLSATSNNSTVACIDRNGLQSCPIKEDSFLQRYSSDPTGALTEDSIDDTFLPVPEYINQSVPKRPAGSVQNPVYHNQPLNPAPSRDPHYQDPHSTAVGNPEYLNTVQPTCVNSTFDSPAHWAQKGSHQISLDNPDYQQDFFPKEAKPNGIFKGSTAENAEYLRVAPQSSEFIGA
T3 sequence (P00533 25-1210): as above

Take `C=CC(=O)Nc1cc(Nc2nccc(-c3cn(C)c4ccccc34)n2)c(OC)cc1N(C)CCN(C)C` [Compound 2, osimertinib, reference compound]: the half-life at 50 µM in data set [1] was 2.5 h.
Turning to `COc1cc2ncnc(Nc3ccc(F)c(Cl)c3)c2cc1OCCCN1CCN(C(=O)CCCNC(=O)CCc2ccc3n2[B-](F)(F)[N+]2=C(C)C=C(C)C2=C3)CC1` [Compound 6, N-(4-(4-(3-((4-((3-chloro-4-fluorophenyl)amino)-7-methoxyquinazolin-6-yl)oxy)propyl)piperazin-1-yl)-4-oxobutyl)-3-(5,5-difluoro-7,9-dimethyl-5H-5l4,6l4-dipyrrolo[1,2-c:2’,1’-f][1,3,2]diazaborinin-3-yl)propenamide, reference compound], the Kd in data set [2] (fluorescent probe) came to 1600 ± 190 nM; in data set [3] (fluorescent probe), 3000 ± 1600 nM.
As to `C=CC(=O)N1CCC(Oc2cc3c(Nc4cccc(Cl)c4F)ncnc3cc2OC)CC1` [Compound 7], the “WT pIC50” value in data set [2] is 8.8 ± 0.1. The “DM pIC50” value in data set [3] was found to be 8.4 ± 0.03.
`C=CC(=O)N1CCC(Oc2cc3c(Nc4ccc(F)c(Cl)c4)ncnc3cc2OC)CC1` [Compound 8]: the “WT pIC50” value in data set [2] is given as 8.3 ± 0.07. Also, in data set [3], the “DM pIC50” value came to 8.0 ± 0.6.
Regarding `C=CC(=O)N1CC[C@@H](Oc2cc3c(Nc4ccc(F)c(Cl)c4)ncnc3cc2OC)C1` [Compound 16], the IC50 in data set [2] is 316 nM; in data set [3], 100 nM; in data set [4], 79.4 nM; in data set [5], 2510 nM. Moreover, in data set [1], the half-life at 50 µM is 36 h. In data set [6], this molecule showed a GI50 of 316 nM.
Regarding `C=CC(=O)N1CC[C@H](Oc2cc3c(Nc4ccc(F)c(Cl)c4)ncnc3cc2OC)C1` [Compound 17], the IC50 in data set [2] was 5.01 nM; in data set [3], 6.31 nM; in data set [4], below 10 nM; in data set [5] it was 25.1 nM. For the same molecule, the half-life at 50 µM in data set [1] was 41 h. In addition, the “level of protein modification compared to 16” value in data set [7] was “two-fold increase”. The molecule also gave a GI50 in data set [6] of 7.94 nM.
For `COc1cc2ncnc(Nc3ccc(F)c(Cl)c3)c2cc1O[C@@H]1CCN(C(C)=O)C1` [Compound 22], the values for the IC50 in data set [2] and in data set [3] were 39.8 nM and 25.1 nM, respectively.
With `COc1cc2ncnc(Nc3ccc(F)c(Cl)c3)c2cc1O[C@H]1CCN(C(C)=O)C1` [Compound 23], the IC50 in data set [2] was 126 nM; in data set [3], 31.6 nM.
